Measured values: US9642922B2, “Caspase-triggered nano-aggregation probes and methods of use” (The Board of Trustees of the Leland Stanford Junior …, priority 2013, dated 2017)
Numbered stars: 1 amine (or outer) side, 2 acyl side, 3 side chain; on linkers, the order of the positions; unused ones are H or OH. Square brackets hold non-standard residues; d marks the D form. Peptide text beside a SMILES is read from it. * marks the point of attachment. DOTA = O=C(O)CN1CCN(CC(=O)O)CCN(CC(=O)*)CCN(CC(=O)O)CC1; X1 = O=C(C1CSC(c2nc3ccc(N[*:1])cc3s2)=N1)[*:2]; X2 = N#Cc1ccc2cc(OCCCN*)ccc2n1; SEt = CCS*

Columns and labels:
caspase-3 = target: T1, caspase-3 (Homo sapiens, UniProt P42574); experiment: HPLC assay of caspase-3-triggered macrocyclization of C-SNAF; assay type: biochemical; set-up: purchased Sigma; host or cells: E. coli; settings: probe 25 μM, caspase-3, 6 h
T1 sequence (P42574 29-175 limits assumed): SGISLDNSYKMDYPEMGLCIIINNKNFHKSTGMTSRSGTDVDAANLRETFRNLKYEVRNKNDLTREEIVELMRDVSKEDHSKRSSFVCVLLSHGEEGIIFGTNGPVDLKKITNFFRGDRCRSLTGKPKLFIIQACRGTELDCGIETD
T1 sequence (P42574 176-277 limits assumed): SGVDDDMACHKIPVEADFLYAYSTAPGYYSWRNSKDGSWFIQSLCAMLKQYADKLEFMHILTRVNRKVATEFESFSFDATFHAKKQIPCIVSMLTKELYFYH
Description: The progression of caspase-3-triggered macrocyclization of C-SNAF to form C-SNAF-cycl in solution was monitored using high-performance liquid chromatography (HPLC) following incubation of the probe (25 μM) with recombinant human caspase-3 (4.9×10^−[…]).
Caspase (human, recombinant from E. coli) assays were performed for caspase-3 (4.9×10^−3 U; 7.35×10^−4 mg, Sigma), −7 (18.3 U; 7.35×10^−4 mg, Calbiochem), and −9 (0.3 U; 7.35×10^−4 mg, Calbiochem). All caspase assays were conducted in caspase buffer with 50 mM HEPES, 100 mM NaCl, 1 mM EDTA, 10 mM TCEP, 10% glycerol, and 0.1% CHAPS at pH 7.4. Cathepsin B (human liver; 0.27 U; 7.35×10^−4 mg, Calbiochem) and Legumain (human, recombinant from mouse myeloma cell line; >250 pmol/min/μg; 7.35×10^−4 mg, R&D Systems) were conducted in reaction buffer with 50 mM sodium acetate, 50 mM NaCl, 0.5 mM EDTA and 10 mM TCEP at pH 5.5. C-SNAF was diluted in the respective enzyme reaction buffer (25 μM, 1 mL) and remained at room temperature for 10 min, to which was then added the respective enzymes. Reactions were performed at 37° C., and monitored by HPLC hourly. The percentage conversion of the reaction was calculated based on the percentage of peak area of C-SNAF-cycl in the HPLC trace at 675 nm UV detection, which indicated the efficacy of enzyme cleavage of C-SNAF.

apoptotic HeLa cells = experiment: Epifluorescence microscopy of apoptotic HeLa cells labeled with probes; assay type: cell-based, human
Description: After removal of the medium, the cells were incubated with C-SNAF, L-ctrl, or D-ctrl at 2 μM for 24 h. Some cells were first incubated with caspase inhibitor (Z-VAD-fmk, 50 μM) for 30 min, followed by incubating with 2 μM C-SNAF for 24 h. The cells were carefully washed with PBS (1×) three times, and stained with Hoechst 33342 (2 μM) at 37° C. for 30 min. After rinses with PBS (1×) several times, the medium was replaced and the fluorescence images were acquired with DAPI and Cy5.5 filters. The images were processed using the standard CRi Nuance software, analyzed using Image J software package (NIH), and presented at the same intensity scale for comparison.
HeLa cells in #1.5 borosilicate 8-well chambered coverslips (Nunc) were either incubated with C-SNAF (2 μM) alone or co-incubated with DOX (1, 2, and 5 μM) and 2 μM C-SNAF, 2 μM C-SNAF together with caspase inhibitor (Z-VAD-fmk, 50 μM), or control probes D-ctrl and L-ctrl at 2 μM for 24 h. Then the medium was removed, the cells were carefully washed with PBS (1×) three times, and stained with nuclear binding probe Hoechst 33342 (2 μM) at 37° C. for 30 min. After several rinses with PBS (1×), the medium was replaced and the fluorescence images were acquired with DAPI and […] filters.

cathepsin B = target: T2, cathepsin B (Homo sapiens, UniProt P07858); experiment: T1 measurement of probe 15 with cathepsin B; assay type: biochemical; settings: probe 208 μM, protease 50 nM, 1 T
T2 construct: Cathepsin B (human liver; 0.27 U; 7.35×10^−4 mg, Calbiochem); purchased Calbiochem; host or cells: human liver (tissue-derived)
Description: The enzyme specificity of probe 15 was studied by measuring the T1 value resulting from probe incubation (208 μM) with any of five relevant subcellular proteases (caspase-3, -7, -9, cathepsin B and legumain) in enzyme buffer. […] The reduced T1 value in solution was inhibited by the caspase inhibitor Z-VAD-fmk (50 μM).
Cathepsin B (human liver; 0.27 U; 7.35×10^−4 mg, Calbiochem) and Legumain (human, recombinant from mouse myeloma cell line; >250 pmol/min/μg; 7.35×10^−4 mg, R&D Systems) were conducted in reaction buffer with 50 mM sodium acetate, 50 mM NaCl, 0.5 mM EDTA and 10 mM TCEP at pH 5.5. The C-SNAF was diluted in the respective enzyme reaction buffer (25 μM, 1 mL) and remained at room temperature for 10 min, to which was added respective enzymes.

HeLa cell pellets = experiment: MRI T1 of HeLa cell pellets at 1 T; assay type: cell-based, human; settings: 250 μM, 24 h
From the text: Thus, higher caspase-3 activity in apoptotic cells can trap probe 15 inside cells, resulting in higher MRI contrast for cell apoptosis imaging.

Structure (SMILES)	conversion to C-SNAF-cycl after 6 h (caspase-3)	cell labeling efficiency (apoptotic HeLa cells; DOX 1 μM) [%]	cell labeling efficiency (apoptotic HeLa cells; DOX 5 μM) [%]	enhancement in cell labeling efficiency (apoptotic HeLa cells; DOX 1 to 5 μM)	cell labeling efficiency (apoptotic HeLa cells; STS 0.5 μM) [%]	cell labeling efficiency (apoptotic HeLa cells; STS 2 μM) [%]	enhancement in cell labeling efficiency (apoptotic HeLa cells; STS 0.5 to 2 μM)	T1 value after incubation with cathepsin B (cathepsin B)	reduction of T1 value in STS-treated versus non-treated cell pellets (HeLa cell pellets)
CCSSC[C@@H](NC(=O)[C@H](CC(=O)O)NC(=O)[C@@H](NC(=O)[C@H](CCC(=O)O)NC(=O)[C@H](CC(=O)O)NC(C)=O)C(C)C)C(=O)N[C@@H](CCCCNC(=O)CCCCCN1C(=CC=CC=CC2=[N+](CC)c3ccc4c(S(=O)(=O)[O-])cc(S(=O)(=O)O)cc4c3C2(C)C)C(C)(C)c2c1ccc1c(S(=O)(=O)O)cc(S(=O)(=O)O)cc21)C(=O)Nc1ccc2nc(C3=N[C@@H](C(=O)NCCCOc4ccc5nc(C#N)ccc5c4)CS3)sc2c1 [C-SNAF]	almost completely converted to C-SNAF-cycl	9	92	approximately 10 fold	23	90	approximately 4 fold	–	–
CCSSCC(NC(=O)C(CC(=O)O)NC(=O)C(NC(=O)C(CCC(=O)O)NC(=O)C(CC(=O)O)NC(C)=O)C(C)C)C(=O)NC(CCCCNC(=O)CN1CCN(CC(=O)[O-])CCN(CC(=O)[O-])CCN(CC(=O)[O-])CC1)C(=O)Nc1ccc2nc(C3=NC(C(=O)NCCCOc4ccc5nc(C#N)ccc5c4)CS3)sc2c1.[Gd+3] (stereo not drawn) [probe 15] (Ac-DEVDC(SEt)K(DOTA)[X1]-X2; configuration not given here)	–	–	–	–	–	–	–	No reduced T1 value	about 3 fold
